The values that follow come from patent US7863285B2, “Purinone derivatives as HM74A agonists” (Incyte Corporation, priority 2006, dated 2011).

The conditions of test [1]: clinical, cited from earlier work; for lowering of plasma LDL: monotherapy.
The next test concerns mature adipocytes. Put plainly: Adipocyte lipolysis assay. The class given is cell-based. Particulars: glycerol in supernatants after overnight culture with IBMX (100 μM). On the procedure: Preadipocytes purchased from Zen Bio were plated at 8.7×10^4 cells/well in 96-well plates, differentiated for 14 days and mature adipocytes assayed during days 15 through 21. Adipocyte maturation is assessed by the presence of rounded cells with large lipid droplets in the cytoplasm. Following maturation, cells were washed and incubated overnight with IBMX (100 μM) and various concentrations of compound diluted in assay buffer containing a final DMSO concentration of 0.1%. After overnight culture, the glycerol concentration in the supernatants was determined with the Lipolysis Assay Kit purchased from Zen-Bio. Absorbance at 540 nm is directly proportional to the glycerol concentration in the sample. IC50 determinations were based on compound inhibition relative to DMSO controls. […] For example, the compound of Example 1 has an IC50 of 100 nM in this assay.

Test [2] has as its target T1, human HM74a (Homo sapiens, UniProt Q8TDS4). Put plainly: cAMP assay. The conditions noted are these: CHO cells stably transfected with human HM74a; 5 μM forskolin; inhibition relative to DMSO controls. It counts as cell-based. Further details: expressed in transfected cells. How it is done:
CHO cells stably transfected with human HM74a were seeded at 7,500 cells/well in a 96-well plate in HAMS F12 medium with 10% FBS. The plate was incubated overnight at 37° C. and 5% CO2. The test compounds were prepared in a stimulation buffer containing 1×HANKS, 20 mM HEPES, 5 μM forskolin, and 0.25 mM IBMX. The media from the cell plate was removed before adding 30 μL of the test compounds. After 30 minute incubation at 37° C. and 5% CO2, the cAMP level was assayed using HitHunter cAMP XS assay kit (DiscoverX, CA). IC50 determinations were based on compound inhibition relative to DMSO controls.
Target sequence in this assay (Q8TDS4 whole entry): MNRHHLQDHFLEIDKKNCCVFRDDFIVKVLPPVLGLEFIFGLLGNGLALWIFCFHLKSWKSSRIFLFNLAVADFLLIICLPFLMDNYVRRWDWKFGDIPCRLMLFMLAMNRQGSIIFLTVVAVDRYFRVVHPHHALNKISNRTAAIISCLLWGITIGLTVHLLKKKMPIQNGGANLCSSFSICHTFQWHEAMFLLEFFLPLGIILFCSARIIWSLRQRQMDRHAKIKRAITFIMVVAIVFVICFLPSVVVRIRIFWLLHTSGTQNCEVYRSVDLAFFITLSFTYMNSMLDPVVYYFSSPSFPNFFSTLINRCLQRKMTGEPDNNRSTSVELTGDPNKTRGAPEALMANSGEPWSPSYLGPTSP
In general terms: cAMP levels reflect the balance of adenylyl cyclase and phosphodiesterase activity.

Test [3] has as its target T1, human HM74a. Nature of the test: GTPγS recruitment assay. The class given is biochemical. Details: expressed in transfected cells; host or cells: HEK293 cells, transient transfection, membrane preparation. Particulars: membranes of HEK293 cells transfected with human HM74a and Gα0; 35S GTPγS. On the procedure: Membranes were prepared from HEK293 cells transiently transfected with human HM74a and Gα0 protein. Assays were performed in 384-well format in a volume of 50 μL per assay point. Serial dilutions of compounds were prepared in the assay buffer (20 mM HEPES pH. 7.4, 100 mM NaCl, 10 mM MgCl2, 10 mg/L saponin and 10 μM GDP) and mixed with membranes (2 μg per assay point) and ^35S GTPγS (Amersham, 0.3 nM) in the assay buffer. The mixtures were incubated at room temperature for 30 min and wheat germ agglutinin SPA beads (Amersham) (0.2 mg per assay point) in the assay buffer were added. After 30 min incubation with agitation, plates were centrifuged at 1500 g for 5 min and bound ^35S GTPγS was determined by counting on a TopCount scintillation counter.
Target sequence in this assay (Q8TDS4 whole entry): as above
Target sequence in this assay (P09471 2-354 partner limits assumed): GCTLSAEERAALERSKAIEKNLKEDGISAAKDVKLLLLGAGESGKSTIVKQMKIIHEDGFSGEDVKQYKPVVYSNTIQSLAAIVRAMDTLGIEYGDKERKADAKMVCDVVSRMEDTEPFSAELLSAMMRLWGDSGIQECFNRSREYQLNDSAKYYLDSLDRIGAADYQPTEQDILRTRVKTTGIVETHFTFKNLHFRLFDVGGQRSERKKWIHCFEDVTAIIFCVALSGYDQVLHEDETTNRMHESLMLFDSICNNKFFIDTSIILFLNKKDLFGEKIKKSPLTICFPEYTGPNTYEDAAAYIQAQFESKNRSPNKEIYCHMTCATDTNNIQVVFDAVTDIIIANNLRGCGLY
Target sequence in this assay (P62873 2-340 partner limits assumed): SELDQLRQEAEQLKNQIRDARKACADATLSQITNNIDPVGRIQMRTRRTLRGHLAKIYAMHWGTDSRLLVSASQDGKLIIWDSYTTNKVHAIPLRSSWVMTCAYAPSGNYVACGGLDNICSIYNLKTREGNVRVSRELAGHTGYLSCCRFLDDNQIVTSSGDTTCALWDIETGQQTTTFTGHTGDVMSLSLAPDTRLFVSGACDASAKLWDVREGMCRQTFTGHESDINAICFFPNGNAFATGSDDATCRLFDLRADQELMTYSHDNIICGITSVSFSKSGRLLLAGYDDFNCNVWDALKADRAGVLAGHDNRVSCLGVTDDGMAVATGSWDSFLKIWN
Target sequence in this assay (P59768 2-68 partner limits assumed): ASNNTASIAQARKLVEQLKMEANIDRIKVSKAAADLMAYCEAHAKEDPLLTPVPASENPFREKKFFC
On the technique in general: GTPγS is a poorly hydrolysed GTP analogue; its binding reports G protein activation.

As for `O=C1[C@H](CC[C@H](O)c2ccc(F)cc2)[C@@H](c2ccc(O)cc2)N1c1ccc(F)cc1` [Ezetimibe], in test [1], the “lowering of plasma LDL” value is 20%.
As for `O=C(O)c1cccnc1` [Nicotinic acid, nicotinic acid], in test [1], the “lowering of plasma LDL” value is 16%, the “decrease of plasma triglycerides” value is reported as 38% and the “raising HDL levels” value is recorded as 20-30%.
Consider `CCCCCn1c(=O)n2cnnc2c2[nH]c(C(F)(F)F)nc21` [Example 1, 6-pentyl-8-(trifluoromethyl)-6,9-dihydro-5H-[1,2,4]triazolo[3,4-i]purin-5-one], for which the IC50 (commonly the concentration needed to halve the response being measured) was 100 nM with mature adipocytes and 20 nM against human HM74a [2]. The EC50 (usually the concentration needed to bring the measured effect to its halfway point) at human HM74a [3] worked out at 61 nM.
